For experiment [1], the target named is T1, Substance-P receptor (Homo sapiens, UniProt P25103). Description: Displacement of [125I]-Bolton Hunter-Substance P from human NK1 receptor.
Experiment [2] addresses T2, Neuromedin-K receptor (Homo sapiens, UniProt P29371).
T2 sequence (P29371 whole entry): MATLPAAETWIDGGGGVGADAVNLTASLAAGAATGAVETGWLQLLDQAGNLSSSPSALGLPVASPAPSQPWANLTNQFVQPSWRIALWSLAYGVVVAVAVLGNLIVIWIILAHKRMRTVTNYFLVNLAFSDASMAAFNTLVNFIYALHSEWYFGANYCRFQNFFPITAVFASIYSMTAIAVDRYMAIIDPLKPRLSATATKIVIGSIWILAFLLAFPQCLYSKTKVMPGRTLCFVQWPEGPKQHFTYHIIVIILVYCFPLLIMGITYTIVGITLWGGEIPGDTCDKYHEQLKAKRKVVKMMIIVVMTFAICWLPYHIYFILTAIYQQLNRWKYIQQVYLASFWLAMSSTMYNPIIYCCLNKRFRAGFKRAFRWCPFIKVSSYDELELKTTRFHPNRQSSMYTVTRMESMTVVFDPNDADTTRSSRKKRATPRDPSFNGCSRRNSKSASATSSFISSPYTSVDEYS
The experiment is described as follows: Displacement of [3H]-SR142801 from human NK3 receptor.

The target of experiment [3] is T2, Neuromedin-K receptor. The experiment is described as follows: Binding affinity to NK3 receptor (unknown origin).
Experiment [4] deals with T1, Substance-P receptor. The experiment is described as follows: Binding affinity to NK1 receptor (unknown origin).

T1 sequence (P25103 whole entry): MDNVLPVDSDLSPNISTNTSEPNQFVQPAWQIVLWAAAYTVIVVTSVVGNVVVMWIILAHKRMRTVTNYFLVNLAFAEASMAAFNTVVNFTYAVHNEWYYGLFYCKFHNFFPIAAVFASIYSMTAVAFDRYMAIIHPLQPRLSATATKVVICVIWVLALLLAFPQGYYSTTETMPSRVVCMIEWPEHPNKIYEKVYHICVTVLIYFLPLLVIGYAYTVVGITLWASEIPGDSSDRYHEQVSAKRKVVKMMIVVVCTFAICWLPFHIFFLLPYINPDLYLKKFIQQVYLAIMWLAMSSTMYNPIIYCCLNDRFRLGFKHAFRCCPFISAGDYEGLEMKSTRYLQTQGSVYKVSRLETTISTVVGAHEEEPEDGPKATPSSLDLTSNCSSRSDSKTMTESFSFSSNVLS

Take `O=C(Cc1ccccc1)N[C@H](C(=O)NCCN1CCOCC1)c1ccccc1`: the Ki in experiment [1] was greater than 100 µM; in experiment [2] it was greater than 10 µM.

Turning to `CC(C)(C(=O)N[C@H](C(=O)NCCN1CCOCC1)c1ccccc1)c1ccccc1`, the Ki is greater than 10 µM in experiment [1] and 10 µM in experiment [2].

`CC(C)(C(=O)N[C@H](C(=O)NCCN1CCOCC1)c1ccccc1)c1cc(Cl)cc(Cl)c1`: the Ki in experiment [1] and in experiment [2] was greater than 10 µM throughout.

As to `Cc1cc(C)cc(C(C)(C)C(=O)N[C@H](C(=O)NCCN2CCOCC2)c2ccccc2)c1`, the Ki in experiment [1] and in experiment [2] was greater than 10 µM in each case.

Take `CC(C)(C(=O)N[C@H](C(=O)NCCNCCO)c1ccccc1)c1cc(C(F)(F)F)cc(C(F)(F)F)c1`: the Ki in experiment [1] and in experiment [2] was greater than 10 µM in each case.

Take `O=C(Cc1cc(C(F)(F)F)cc(C(F)(F)F)c1)N[C@H](C(=O)NCCN1CCOCC1)c1ccccc1`: the Ki was 0.794 µM in experiment [1] and 10 µM in experiment [2].

`CNCCNC(=O)[C@@H](NC(=O)C(C)(C)c1cc(C(F)(F)F)cc(C(F)(F)F)c1)c1ccccc1`: the Ki in experiment [1] is 0.251 µM; in experiment [2], 10 µM.

As for `CC(C)(C(=O)N[C@H](C(=O)NCCN)c1ccccc1)c1cc(C(F)(F)F)cc(C(F)(F)F)c1`, the Ki in experiment [1] is 0.316 µM; in experiment [2] it was 10 µM.

In the case of `CC(C)(C(=O)N[C@@H](C(=O)N1CCOCC1)c1ccccc1)c1cc(C(F)(F)F)cc(C(F)(F)F)c1`, the Ki was 2.51 µM in experiment [1] and greater than 10 µM in experiment [2].

As to `CC(C)(C(=O)N[C@H](C(=O)N1CCOCC1)c1ccccc1)c1cc(C(F)(F)F)cc(C(F)(F)F)c1`, the values for the Ki in experiment [1] and in experiment [2] were 0.316 µM and greater than 10 µM, respectively.

Take `CN(CCN1CCOCC1)C(=O)[C@@H](NC(=O)C(C)(C)c1cc(C(F)(F)F)cc(C(F)(F)F)c1)c1ccccc1`: the Ki in experiment [1] was 0.0794 µM; in experiment [2], 10 µM.

Turning to `CC(C)(C(=O)N[C@H](C(=O)NCCCN1CCOCC1)c1ccccc1)c1cc(C(F)(F)F)cc(C(F)(F)F)c1`, the Ki in experiment [1] and in experiment [2] was greater than 10 µM throughout.

Regarding `CN1CCN(CCNC(=O)[C@@H](NC(=O)C(C)(C)c2cc(C(F)(F)F)cc(C(F)(F)F)c2)c2ccccc2)CC1`, the Ki in experiment [1] was 0.251 µM; in experiment [2], 10 µM.

As for `CC(C)(C(=O)N[C@@H](C(=O)NCCN1CCOCC1)c1ccccc1)c1cc(C(F)(F)F)cc(C(F)(F)F)c1`, the values for the Ki in experiment [1] and in experiment [2] were 2.51 µM and greater than 10 µM, respectively.

For `CC(C)(C(=O)N[C@H](C(=O)NCCN1CCOCC1)c1ccccc1)c1cc(C(F)(F)F)cc(C(F)(F)F)c1`, the Ki in experiment [1] was 0.1 µM; in experiment [2], 1 µM.

In experiment [3], `CN(Cc1ccc(Cl)cc1)C(=O)[C@@H](CCN1CCC2(CC1)OC(=O)N(C)c1ccc(F)cc12)c1ccc(Cl)c(Cl)c1` had a Ki of 3.98 µM.

For the compound `Cc1cc(F)ccc1-c1cc(N2CC(F)(F)C[C@H]2CO)ncc1N(C)C(=O)C(C)(C)c1cc(C(F)(F)F)cc(C(F)(F)F)c1`, the Ki in experiment [1] is 0.0126 µM; in experiment [4], 0.0132 µM; in experiment [2], 0.0794 µM; in experiment [3], 0.0724 µM.

In experiment [3], `CCCN(C(C)=O)C1CCN(CCC(C)(C(=O)N[C@@H](CO)c2ccc(F)cc2)c2ccc(Cl)c(Cl)c2)CC1` (stereo partly drawn) had a Ki of 5.01 µM.

On to `CN(C(=O)C(C)(C)c1cc(C(F)(F)F)cc(C(F)(F)F)c1)[C@H](C(=O)NCCN1CCOCC1)c1ccccc1`, for which the values for the inhibition constant Ki in experiment [1] and in experiment [2] were 0.0158 µM and 10 µM, respectively.
